*1 amine or outer side, *2 acyl side, *3 side chain or, on linkers, in order; H or OH if unused. Where a SMILES comes first, the peptide text is derived from it. Bridges are numbered along the chain shown (N, C = ends). [ ]: non-standard residue; d: D form. The star is where a group is joined. hPhe(3-Cl-4-CF3) = N[C@@H](CCc1ccc(C(F)(F)F)c(Cl)c1)C(=O)O; X12 = C=CCN([C@@H](Cc1ccc(C(F)(F)F)cc1)C(=O)[*:2])[*:1]; NPrPhe(4-CF3) = CCCN[C@@H](Cc1ccc(C(F)(F)F)cc1)C(=O)O; NMeGly(cPent) = CN[C@H](C(=O)O)C1CCCC1; NMeD = CN[C@@H](CC(=O)O)C(=O)O; NMeL = CN[C@@H](CC(C)C)C(=O)O; Morpholide = C1CN(*)CCO1; NMeA = CN[C@@H](C)C(=O)O; Ac5c = NC1(C(=O)O)CCCC1; Aze = O=C(O)[C@@H]1CCN1; Sar = CNCC(=O)O
Tests used:
[1] = molecular target: GDP-bound NRAS wild-type protein (Homo sapiens, UniProt P01111); experiment: Binding to NRAS by surface plasmon resonance (SPR), KD and KD ratio to KRAS
Chain of GDP-bound NRAS wild-type protein (P01111 whole entry): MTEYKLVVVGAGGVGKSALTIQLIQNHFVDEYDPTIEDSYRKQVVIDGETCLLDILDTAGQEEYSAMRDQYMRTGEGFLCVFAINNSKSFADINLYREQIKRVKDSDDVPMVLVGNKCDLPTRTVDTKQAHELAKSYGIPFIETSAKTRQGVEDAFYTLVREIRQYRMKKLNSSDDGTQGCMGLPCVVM
Outline: (§1)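 Single-cycle kinetics on GDP-loaded biotin-Avi RAS captured to ~100–300 RU; 75 s ascending injections, 100 µL/min, 30°C. HBS pH 7.4 + 10 mM MgCl2/10 µM GDP/4% DMSO. 1:1 fit, KD.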

HRAS wild-type protein = HRAS wild-type protein (Homo sapiens, UniProt P01112); experiment: Binding to HRAS by surface plasmon resonance (SPR), KD and KD ratio to KRAS
Chain of HRAS wild-type protein (P01112 whole entry): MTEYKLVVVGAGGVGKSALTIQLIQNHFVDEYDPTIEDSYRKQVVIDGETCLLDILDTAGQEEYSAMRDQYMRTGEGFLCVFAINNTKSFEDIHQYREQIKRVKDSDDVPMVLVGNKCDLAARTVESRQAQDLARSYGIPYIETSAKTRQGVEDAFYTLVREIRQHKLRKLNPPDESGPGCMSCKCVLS
Outline: as §1

[2] = tested on: human lung cancer strain NCI-H441; type: cell-based
Outline: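 Proliferation was scored by […] measured after the reagent was added to cultures kept at 37°C in 5% carbon dioxide.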

[3] = ratio of KD value for GDP-bound NRAS wild-type protein to KD value for KRAS (SPR)
[4] = ratio of KD value for HRAS wild-type protein to KD value for KRAS (SPR)
[5] = ratio of KD for GDP-bound NRAS wild-type protein to KD for KRAS
[6] = ratio of KD for HRAS wild-type protein to KD for KRAS

SMILES	NRAS /KRAS [1, 3]	HRAS /KRAS (HRAS wild-type protein; [4])	IC50 [2] [nM]	NRAS /KRAS [1, 5]	HRAS /KRAS (HRAS wild-type protein; [6])	NRAS /KRAS ([1]; ratio of the KD value with respect to GDP-bound NRAS wild-type protein to the KD value with respect to KRAS)	HRAS /KRAS (HRAS wild-type protein; ratio of the KD value with respect to HRAS wild-type protein to the KD value with respect to KRAS)
CCC[C@H]1C(=O)N[C@@H]([C@@H](C)CC)C(=O)N(C)CC(=O)N(C)[C@H]2C/C=C\CCN(C2=O)[C@@H](Cc2ccc(C(F)(F)F)cc2)C(=O)N(C)CC(=O)N[C@@H](CCc2cc(F)c(C(F)(F)F)c(F)c2)C(=O)N2CC(F)(F)C[C@H]2C(=O)NC2(CC(C)(C)C2)C(=O)N(C)[C@@H](C2CCCC2)C(=O)N(C)[C@H](C(=O)N(C)C)CC(=O)N1C [PP1711]	A (a compound having 10 or more and less than 20 is denoted as A)	B (a compound having 3 or more and less than 10 is denoted as B)	5	–	–	–	–
CCCOC[C@H]1C(=O)N[C@@H]([C@@H](C)CC)C(=O)N(C)CC(=O)N(C)[C@H]2C/C=C\CCN(C2=O)[C@@H](Cc2ccc(C(F)(F)F)cc2)C(=O)N(C)CC(=O)N[C@@H](CCc2cc(F)c(C(F)(F)F)c(F)c2)C(=O)N2C[C@H](OCC)C[C@H]2C(=O)NC2(CC(F)(F)C2)C(=O)N(C)[C@@H](C2CCCC2)C(=O)N(C)[C@H](C(=O)N(C)CCC)CC(=O)N1C [PP1744]	A (a compound having 10 or more and less than 20 is denoted as A)	A (a compound having 10 or more and less than 20 is denoted as A)	5.3	–	–	–	–
CCCN1C(=O)CN(C)C(=O)CN(C)C(=O)[C@H]([C@@H](C)CC)NC(=O)[C@H](CC(C)C)N(C)C(=O)C[C@@H](C(=O)N2CCOCC2)N(C)C(=O)[C@H](C2CCCC2)N(C)C(=O)C2(CCCC2)NC(=O)[C@@H]2CCCN2C(=O)[C@H](CCc2ccc(C(F)(F)F)c(Cl)c2)NC(=O)CN(C)C(=O)[C@@H]1Cc1ccc(C(F)(F)F)cc1 [PP0060] ([NMeL]I[Sar][Sar][NPrPhe(4-CF3)][Sar][hPhe(3-Cl-4-CF3)]P[Ac5c][NMeGly(cPent)][NMeD]-Morpholide; lactam N-11)	–	–	1.5	B (a compound having 3 or more and less than 10 is denoted as B)	B (a compound having 3 or more and less than 10 is denoted as B)	–	–
C=CCN1C(=O)[C@@H]2CCN2C(=O)[C@H](C)N(C)C(=O)[C@H]([C@@H](C)CC)NC(=O)[C@H](CC(C)C)N(C)C(=O)C[C@@H](C(=O)N2CCOCC2)N(C)C(=O)[C@H](C2CCCC2)N(C)C(=O)C2(CCCC2)NC(=O)[C@@H]2CCCN2C(=O)[C@H](CCc2ccc(C(F)(F)F)c(Cl)c2)NC(=O)CN(C)C(=O)[C@@H]1Cc1ccc(C(F)(F)F)cc1 [PP0114] ([NMeL]I[NMeA][Aze][X12][Sar][hPhe(3-Cl-4-CF3)]P[Ac5c][NMeGly(cPent)][NMeD]-Morpholide; lactam N-11)	–	–	6.1	C (A compound having a KD ratio of 0.1 or more and less than 3 is denoted as C)	C (A compound having a KD ratio of 0.1 or more and less than 3 is denoted as C)	–	–
CCO[C@@H]1C[C@H]2C(=O)NC3(CCC3)C(=O)N(C)[C@@H](C(CC)CC)C(=O)N(C)[C@H](C(=O)N3CCCCC3)CC(=O)N(C)[C@H]3CCCC/C=C/c4ccc(cc4)C[C@@H](C(=O)N(C)CC(=O)N[C@@H](CCc4ccc(Cl)c(Cl)c4)C(=O)N2C1)N1CC/C=C\C[C@@H](C1=O)N(C)C(=O)CN(C)C(=O)[C@H]([C@@H](C)CC)NC3=O [PP3046]	–	–	16.7	AA (a compound having 20 or more is denoted as AA)	A (a compound having 10 or more and less than 20 is denoted as A)	–	–
CCC[C@H]1C(=O)N[C@@H](C2CCCCC2)C(=O)N(C)CC(=O)N(C)[C@H]2C/C=C\CCN(C2=O)[C@@H](Cc2ccc(C(F)(F)F)cc2)C(=O)N(C)CC(=O)N[C@@H](CCc2ccc(C(F)(F)F)c(Cl)c2)C(=O)N2C[C@H](OCC)C[C@H]2C(=O)NC2(CC(C)(C)C2)C(=O)N(C)[C@@H](C2CCCC2)C(=O)N(C)[C@H](C(=O)N(C)C)CC(=O)N1C [PP2996]	–	–	13.7	AA (a compound having 20 or more is denoted as AA)	A (a compound having 10 or more and less than 20 is denoted as A)	–	–
CCO[C@@H]1C[C@H]2C(=O)NC3(CC(C)(C)C3)C(=O)N(C)[C@@H](C(CC)CC)C(=O)N(C)[C@H](C(=O)N3CCCCC3)CC(=O)N(C)[C@H]3CCC/C=C/c4ccc(cc4)C[C@@H](C(=O)N(C)CC(=O)N[C@@H](CCc4cc(F)c(C(F)(F)F)c(F)c4)C(=O)N2C1)N1CC/C=C\C[C@@H](C1=O)N(C)C(=O)CN(C)C(=O)[C@H]([C@@H](C)CC)NC3=O [PP2952]	–	–	45	AA (a compound having 20 or more is denoted as AA)	A (a compound having 10 or more and less than 20 is denoted as A)	–	–
CC[C@H](C)[C@@H]1NC(=O)[C@H](CC(C)C)N(C)C(=O)C[C@@H](C(=O)N2CCC2)N(C)C(=O)[C@H](C2CCCC2)N(C)C(=O)C2(CCCC2)NC(=O)[C@@H]2CCCN2C(=O)[C@H](CCc2cc(F)c(C(F)(F)F)c(F)c2)NC(=O)CN(C)C(=O)[C@H](Cc2ccc(C(F)(F)F)cc2)N2CCCC[C@@H](C2=O)N(C)C(=O)CN(C)C1=O [PP0570]	–	–	7.5	–	–	B (a compound having 3 or more and less than 10 is denoted as B)	B (a compound having 3 or more and less than 10 is denoted as B)
